From patent US5373089A, “Oxytocin antagonist” (Northwestern University, priority 1993, dated 1994)
pKd: −log10 of the molar value. Starred links: 1 amine or outer side, 2 acyl side, 3 side chain; linkers in the order of their positions; H or OH if unused. Positions of bridges follow the written chain, without caps; N, C: chain ends. Non-standard residues stand in square brackets, D forms with d. Residues, ends and D or L forms follow the SMILES beside them. X1 = O=C(CC1(S[*:2])CCCCC1)[*:1]

Tests used:
ESTROUS RAT UTERUS = assay: Oxytocic bioassay (isolated rat uterus, integrated contraction response to oxytocin); assay type: cell-based; conditions: for Oxytocic Bioassay pA2: virgin rat uterus in natural estrus, Munsick's buffer 0.5 mM Mg++, integrated contraction area
Source text: The protocol used for the oxytocin bioassay procedure is derived from procedures described in a paper by Sawyer, et al., Endocrinology, 106:81 (1980), which in turn was based on reports of Munsick, Brit. J. Pharmacol., 3:328 (1960), and Holton, Brit. J. Pharmacol., 3:328 (1948). The assay calculations for the pA2 estimates are described by Schild, British J. Pharmacology, 2:189 (1947). The major difference in the present procedure from those reported by others in the field is that the area under the contraction is integrated where most other techniques calculate the amplitude. Integration provides much more consistent and reliable results although the pA2 estimates are approximately an order of magnitude lower than those reported using amplitude of the contraction as the endpoint.
1. Animals--a 1.5 cm piece of uterus from a virgin rat (Holtzman) in natural estrus is used for the assay.
2. Buffer/Assay Bath--The buffer used is Munsicks. […] The buffer is gassed continuously with 95% oxygen; 5% carbon dioxide giving a pH of 7.4. The temperature of the assay bath is 37° C. A 10 ml assay bath is used that contains a water jacket for maintaining the temperature and inlet and outlet spikets for adding and removing buffer.
3. Polygraph/transducer--The piece of uterine tissue used for the assay is anchored at one end and connected to a Statham Strain Gauge Force Transducer at the other end which in turn is attached to a Grass Polygraph Model 79 for monitoring the contractions.
4. Assay Protocol. (a) The tissue is equilibrated in the assay bath for one hour with washing with new buffer every fifteen minutes. One gram of tension is kept on the tissue at all times.
(b) The tissue is stimulated initially with oxytocin at 10 nM to "acclimate" the tissue and with […] KCl to determine the maximum contractile response.
(d) The tissue is exposed to oxytocin (Calbiochemical, San Diego, Calif.) for one minute and washed out. There is a three minute interval before addition of the next dose of the agonist or antagonist. When the antagonist is tested, it is given five minutes before the agonist. The agonist is given for one minute. All responses are integrated using a 7P10 Grass Integrator. This is the major difference between the present protocol and others in the literature which usually measure amplitude of the contractions as the response. A single concentration of oxytocin, equal to 80% of the maximum response, is used to test the antagonist. […] This is repeated three times for each dose of antagonist for a three point assay.
(e) Calculations for pA2 : The dose-response (DR) ratios are calculated for antagonist and a Schild's Plot is performed by plotting the Log (DR-1) vs. Log of antagonist concentration. The line plotted is calculated by least squares regression analysis. The pA2 is the concentration of antagonist at the point where the regression line crosses the 0 point of the Log (DR-1) ordinate. The pA2 is the negative Log of the concentration of antagonist that will reduce the response to the agonist by one-half.
The protocol used for the oxytocin bioassay procedure is derived from procedures described in a paper by Sawyer, et al., Endocrinology, 106:81 (1980), which in turn was based on reports of Munsick, Brit. J. Pharmacol., 3:328 (1960), and Holton, Brit. J. Pharmacol., 3:328 (1948). The assay calculations for the pA2 estimates are described by Schild, Brit. J. Pharmacol. (1947). The major difference in procedure from those previously reported was the integration of the area under the contraction instead of merely calculating the amplitude. Integration provides more consistent and reliable results, although the pA2 estimates are about an order of magnitude lower than those reported using amplitude of the contraction as the endpoint.
A 1.5 cm piece of uterus from a virgin rat (Holtzman) in natural estrus is used for the assay.
The buffer used is Munsick's. […]

HUMAN OXYTOCIN RECEPTOR = target: T1, HUMAN OXYTOCIN RECEPTOR (Homo sapiens, UniProt P30559); assay: Oxytocin receptor assay, human myometrial tissue membranes, 3H-OT competition; assay type: binding
T1 construct: Oxytocin receptors (OTrs) reside on the cell membrane and are present at high concentrations at the end of pregnancy in uterine tissue; from tissue; host or cells: human myometrium from cesarean section patients, sucrose-gradient membrane fraction
T1 sequence (P30559 1-389): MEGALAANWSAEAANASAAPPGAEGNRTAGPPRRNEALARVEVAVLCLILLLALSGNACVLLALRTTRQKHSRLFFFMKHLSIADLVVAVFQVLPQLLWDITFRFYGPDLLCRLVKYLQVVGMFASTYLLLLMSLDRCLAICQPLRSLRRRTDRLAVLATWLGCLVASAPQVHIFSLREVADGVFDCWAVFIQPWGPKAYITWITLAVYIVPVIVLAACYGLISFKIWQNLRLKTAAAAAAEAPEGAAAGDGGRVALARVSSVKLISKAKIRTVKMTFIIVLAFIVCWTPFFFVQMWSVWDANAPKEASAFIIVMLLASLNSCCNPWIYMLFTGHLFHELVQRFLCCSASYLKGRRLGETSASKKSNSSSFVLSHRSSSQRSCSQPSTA
Procedure: Human myometrial tissue was collected from patients at the time of cesarian section after informed consent. The tissue was rinsed in cold buffer, cut into small pieces and frozen at -70° C. until homogenization.
Oxytocin receptors (OTrs) reside on the cell membrane and are present at high concentrations at the end of pregnancy in uterine tissue. Frozen tissue is homogenized in Tris buffer, the homogenate filtered, and the filtrate centrifuged at 1000 g for 15 minutes at 4° C. The supernatant is centrifuged at 40,000 g for 30 minutes and the pellet containing the cell membranes resuspended in 10% sucrose. Density gradient ultracentrifugation is then performed by placing the 10 % sucrose suspension on top of 35% sucrose and centrifuging for 30 minutes in a swing bucket rotor at 105,000 g. The membranes at the interface of the 10%/35% sucrose are removed and resuspended in Tris buffer containing EDTA for 30 minutes. This procedure removes divalent cation and results in dissociation of any endogenously bound OT to the receptor. This mixture is then centrifuged for 15 minutes at 100,000 g and the pellet containing the membrane OTrs resuspended in Tris, PMSF, Mg^++, buffer by sonication.
The binding assay consist of 0.1 ml of 20,000 cmp of tritium labeled OT (New England Nuclear, […]), 0.1 ml of OT antagonist added at increasing concentration, 0.25 ml of buffer and 0.05 ml of membrane (70-150 ug protein). A nonspecific tube has 100× of cold OTA added to it. The incubation is for 30 minutes at 30 ° C. The membrane is pelleted by centrifugation in ultraclear mini tubes (5×41 mm) for 30 minutes at 105,000 g. The resulting pellet containing the bound ^3 H-OT is dissolved in 0.1N NaOH at 45 ° C. for 30 minutes and this mixture is then placed in liquid scintillation counting fluid and counted for dpms in a scintillation counter.
The data is analyzed by nonlinear curve fitting methods using McPherson's EBDA (J Pharmacol Methods 14:213-228, 1985) and Munson and Rodbard's LIGAND (Anal Biochem 107:220-239, 1980) program for saturation and competition analysis for determining Kds and Kis.

What does the source list for “[(S)Pmp^1,D-Trp^2,Pen^6,Arg^8 ] oxytocin [Compound D]”?
OXYTOCIC BIOASSAY ED50 (ESTROUS RAT UTERUS; estrous rat uterus, Table 3): 1.38 nM; BIOASSAY ED50 (ESTROUS RAT UTERUS; estrous rat uterus, Table 4): 1.38 nM; BIOASSAY (ANTI/OTA) (ESTROUS RAT UTERUS; ratio to ANTAG I, rat oxytocic bioassay): 22.1; Oxytocic Bioassay pA2 (ESTROUS RAT UTERUS): 8.86; Oxytocic Bioassay pA2 (ESTROUS RAT UTERUS; D-Trp^2,Pen^6,Arg^8 ] oxytocin): greater than 8.86

How did the pKd (HUMAN OXYTOCIN RECEPTOR) turn out when `CC[C@H](C)[C@@H]1NC(=O)[C@H](Cc2ccccc2)NC(=O)[C@@H](Cc2c[nH]c3ccccc23)NC(=O)CC2(CCCCC2)SSC[C@@H](C(=O)N2CCC[C@H]2C(=O)N[C@@H](CCCNC(=N)N)C(=O)NCC(N)=O)NC(=O)[C@H](CC(N)=O)NC1=O` [Compound B, [Pmp^1,D-Trp^2,Phe^3,Ile^4,Arg^8] oxytocin] ([dW]FINCPRG-NH2; linker N-5 via X1) was run?
Its pKd is 7.71.

What about the “Oxytocic Bioassay pA2” value (ESTROUS RAT UTERUS) of the same compound?
The value was 7.51.
